Assay results published in patent publication US20210228545A1, “METHODS OF TREATING CONDITIONS RELATED TO THE S1P1 RECEPTOR” (Arena Pharmaceuticals, Inc., priority 2018, published 2021).
“Also recorded” adds a separate entry of the source.

Assays:
Assay type in all cases: in vitro ADME
CYP3A4 = test: CYP induction in cultured human hepatocytes; settings: criteria >2-fold mRNA increase and ≥20% of positive control
CYP3A4/5 = test: Direct inhibition of CYP activity in human liver microsomes; settings: up to 10 μM
From the text: (§1) Known metabolism-dependent and/or direct inhibitors of CYP and UGT enzymes were included as positive controls, as applicable.

CYP2C19 = biological target: T1, CYP2C19 (Homo sapiens, UniProt P33261); test: as above; settings: up to 10 μM
T1 construct: human liver microsomes from a pool of 200 individuals; from tissue; host or cells: human liver microsomes, pool of 200 individuals
T1 sequence (P33261 whole entry): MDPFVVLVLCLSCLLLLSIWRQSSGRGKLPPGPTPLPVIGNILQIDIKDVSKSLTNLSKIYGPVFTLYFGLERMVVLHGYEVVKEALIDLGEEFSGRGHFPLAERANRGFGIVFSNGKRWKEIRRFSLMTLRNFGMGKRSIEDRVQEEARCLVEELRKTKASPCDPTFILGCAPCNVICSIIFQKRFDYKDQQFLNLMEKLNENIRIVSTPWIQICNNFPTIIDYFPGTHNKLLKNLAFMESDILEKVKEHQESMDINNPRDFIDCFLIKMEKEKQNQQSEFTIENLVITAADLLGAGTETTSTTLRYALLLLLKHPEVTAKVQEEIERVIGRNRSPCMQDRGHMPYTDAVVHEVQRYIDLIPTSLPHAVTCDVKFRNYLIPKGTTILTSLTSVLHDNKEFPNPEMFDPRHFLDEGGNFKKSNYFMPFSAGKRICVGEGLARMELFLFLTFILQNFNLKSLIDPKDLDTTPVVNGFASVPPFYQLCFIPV
From the text: as §1

CYP2D6 = biological target: T2, CYP2D6 (Homo sapiens, UniProt P10635); test: as above; settings: up to 10 μM
T2 construct: human liver microsomes from a pool of 200 individuals; from tissue; host or cells: human liver microsomes, pool of 200 individuals
T2 sequence (P10635 whole entry): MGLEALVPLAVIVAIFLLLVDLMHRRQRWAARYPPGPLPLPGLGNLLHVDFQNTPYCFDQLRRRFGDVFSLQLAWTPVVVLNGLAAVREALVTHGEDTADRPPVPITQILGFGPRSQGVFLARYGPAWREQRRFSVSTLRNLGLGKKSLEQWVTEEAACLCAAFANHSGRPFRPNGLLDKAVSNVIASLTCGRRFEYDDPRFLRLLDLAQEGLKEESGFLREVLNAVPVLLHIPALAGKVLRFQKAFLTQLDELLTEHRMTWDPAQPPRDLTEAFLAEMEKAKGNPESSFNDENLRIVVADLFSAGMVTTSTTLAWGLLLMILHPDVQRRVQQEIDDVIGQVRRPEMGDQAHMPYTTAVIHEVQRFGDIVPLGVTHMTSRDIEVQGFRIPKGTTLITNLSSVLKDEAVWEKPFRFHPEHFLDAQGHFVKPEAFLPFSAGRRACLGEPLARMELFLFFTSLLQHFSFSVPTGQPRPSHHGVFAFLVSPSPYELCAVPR
From the text: as §1

CYP2C8 = biological target: T3, CYP2C8 (Homo sapiens, UniProt P10632); test: as above
T3 construct: human liver microsomes from a pool of 200 individuals; from tissue; host or cells: human liver microsomes, pool of 200 individuals
T3 sequence (P10632 1-490): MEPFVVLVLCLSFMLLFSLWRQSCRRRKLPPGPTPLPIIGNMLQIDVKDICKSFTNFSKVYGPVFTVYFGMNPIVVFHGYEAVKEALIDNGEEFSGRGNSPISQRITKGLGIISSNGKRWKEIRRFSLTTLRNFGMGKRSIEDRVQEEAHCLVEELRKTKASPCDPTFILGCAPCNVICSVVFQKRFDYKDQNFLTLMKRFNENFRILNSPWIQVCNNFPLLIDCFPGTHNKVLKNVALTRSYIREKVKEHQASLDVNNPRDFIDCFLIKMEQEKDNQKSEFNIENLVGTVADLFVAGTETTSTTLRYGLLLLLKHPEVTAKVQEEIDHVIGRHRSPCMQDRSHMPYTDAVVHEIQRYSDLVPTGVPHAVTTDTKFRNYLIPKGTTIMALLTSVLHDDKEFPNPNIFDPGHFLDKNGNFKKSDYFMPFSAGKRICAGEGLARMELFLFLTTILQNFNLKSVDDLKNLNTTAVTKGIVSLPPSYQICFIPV
From the text: as §1

CYP1A2 = CYP1A2 (Homo sapiens, UniProt P05177); test: as above; settings: up to 10 μM
Sequence of CYP1A2 (P05177 whole entry): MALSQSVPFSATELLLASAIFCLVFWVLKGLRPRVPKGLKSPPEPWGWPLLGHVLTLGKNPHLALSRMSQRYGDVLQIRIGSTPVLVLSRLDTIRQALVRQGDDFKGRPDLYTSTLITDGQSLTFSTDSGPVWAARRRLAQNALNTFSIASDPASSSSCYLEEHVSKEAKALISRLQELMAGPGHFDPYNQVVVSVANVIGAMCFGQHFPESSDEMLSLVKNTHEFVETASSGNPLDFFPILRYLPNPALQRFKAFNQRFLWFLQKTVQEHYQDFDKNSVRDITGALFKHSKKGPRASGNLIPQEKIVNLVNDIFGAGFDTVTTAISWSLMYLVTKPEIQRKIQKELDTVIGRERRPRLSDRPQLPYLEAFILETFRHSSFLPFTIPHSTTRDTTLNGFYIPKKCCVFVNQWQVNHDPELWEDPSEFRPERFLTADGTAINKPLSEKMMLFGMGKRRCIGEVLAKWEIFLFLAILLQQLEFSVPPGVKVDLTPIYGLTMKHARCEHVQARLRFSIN
From the text: as §1

CYP2B6 = biological target: T4, CYP2B6 (Homo sapiens, UniProt P20813); test: as above; settings: up to 10 μM
T4 construct: human liver microsomes from a pool of 200 individuals; from tissue; host or cells: human liver microsomes, pool of 200 individuals
T4 sequence (P20813 whole entry): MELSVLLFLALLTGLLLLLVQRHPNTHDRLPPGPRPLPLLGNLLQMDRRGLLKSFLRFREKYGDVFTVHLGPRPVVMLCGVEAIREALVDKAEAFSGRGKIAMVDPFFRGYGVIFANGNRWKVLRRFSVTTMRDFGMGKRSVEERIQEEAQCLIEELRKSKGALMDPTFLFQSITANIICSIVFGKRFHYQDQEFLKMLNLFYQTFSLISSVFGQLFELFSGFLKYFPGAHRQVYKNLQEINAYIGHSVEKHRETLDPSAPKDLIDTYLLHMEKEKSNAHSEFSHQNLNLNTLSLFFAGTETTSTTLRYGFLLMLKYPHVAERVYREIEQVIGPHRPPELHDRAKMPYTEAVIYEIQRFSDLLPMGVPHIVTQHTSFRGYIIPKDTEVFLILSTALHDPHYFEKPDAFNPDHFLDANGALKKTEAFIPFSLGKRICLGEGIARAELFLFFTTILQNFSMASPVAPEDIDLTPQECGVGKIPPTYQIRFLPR
From the text: as §1

CYP2C9 = biological target: T5, CYP2C9 (Homo sapiens, UniProt P11712); test: as above; settings: up to 10 μM
T5 construct: human liver microsomes from a pool of 200 individuals; from tissue; host or cells: human liver microsomes, pool of 200 individuals
T5 sequence (P11712 whole entry): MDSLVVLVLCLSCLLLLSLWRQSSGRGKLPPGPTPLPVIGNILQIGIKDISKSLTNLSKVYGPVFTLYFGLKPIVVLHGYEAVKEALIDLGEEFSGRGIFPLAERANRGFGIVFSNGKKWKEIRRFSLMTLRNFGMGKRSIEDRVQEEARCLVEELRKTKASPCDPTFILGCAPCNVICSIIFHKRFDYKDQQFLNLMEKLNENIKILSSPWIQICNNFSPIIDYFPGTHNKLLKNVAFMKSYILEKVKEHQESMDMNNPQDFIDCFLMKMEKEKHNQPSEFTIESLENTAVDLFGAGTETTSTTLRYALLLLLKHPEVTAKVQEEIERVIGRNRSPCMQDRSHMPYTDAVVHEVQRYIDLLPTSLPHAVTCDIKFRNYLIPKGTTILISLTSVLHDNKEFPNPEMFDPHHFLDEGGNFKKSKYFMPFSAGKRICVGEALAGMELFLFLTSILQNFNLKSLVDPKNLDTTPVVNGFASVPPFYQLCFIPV
From the text: as §1

With `O=C(O)C[C@H]1CCc2c1[nH]c1ccc(OCc3ccc(C4CCCC4)c(C(F)(F)F)c3)cc21` [Compound 1, (R)-2-(7-(4-cyclopentyl-3-(trifluoromethyl)benzyloxy)-1,2,3,4-tetrahydrocyclopenta[b]indol-3-yl)acetic acid] the “Induction potential for CYP3A4” value (CYP3A4) was “no induction potential; also recorded: not a potential inducer”, the “Direct inhibition of CYP3A4/5 activity” value (CYP3A4/5) was “Little or no direct inhibition” and the “Direct inhibition of CYP2C19 activity” value (CYP2C19) was “Little or no direct inhibition”. The “Direct inhibition of CYP2D6 activity” value (CYP2D6) was “Little or no direct inhibition”, the inhibition at 1 µM (CYP2C8) was 22% and the inhibition at 10 µM (CYP2C8) was roughly 100%. The “Direct inhibition of CYP1A2 activity” value (CYP1A2) was “Little or no direct inhibition”, the “Direct inhibition of CYP2B6 activity” value (CYP2B6) was “Little or no direct inhibition” and the “Direct inhibition of CYP2C9 activity” value (CYP2C9) was “Little or no direct inhibition”.
